Broadly, the pKa is the pH at which an ionisable group is half protonated.

Each structure is given as a SMILES string. Entries after “also recorded” stand apart in the source; their conditions may differ.

A short description of one data set: Electroacoustic sonic amplitude (ESA) as a function of pH. The following applies: FD1 slurries. The data set is classed as physicochemical.
In the case of `CC1=NN(c2ccc(C(=O)O)cc2)C(=O)C1=CC=Cc1c(C)nn(-c2ccc(C(=O)O)cc2)c1O` [FD1], the intrinsic electrokinetic charge result is “negative”.

Staying with this data set, now noted: FD1 versus FD2.
As for `CC1=NN(c2ccc(C(=O)O)cc2)C(=O)C1=CC=Cc1c(C)nn(-c2ccc(C(=O)O)cc2)c1O` [FD1], the “lowest apparent pKa compared with FD2” value is reported as “three pH units lower than that observed for FD2”.

Still in this data set, the particulars now being: above pH 5, FIG. 2.
On to `CC1=NN(c2ccc(C(=O)O)cc2)C(=O)C1=CC=Cc1c(C)nn(-c2ccc(C(=O)O)cc2)c1O` [FD1], for which the “solubility of the dye with increasing pH” value is “marked increased solubility”.

Another data set can be described thus: pH measurement of FD1 slurry on addition of buffering salt. The following applies: 0.1 mole/L aqueous salt added to S1 slurry. The class given is physicochemical.
Procedure: Measurements of pH were made using a Corning combination pH electrode, calibrated with VWR buffers of pH 4.0 and pH 7.0, using a Radiometer Copenhagen PHM63 pH meter. Equilibrated measurements were taken at about 24° C. while stirring the solutions or slurries.
About 97.0 g of the above described S1 slurry were placed in a 200 mL beaker upon a magnetic stirrer, and this slurry was moderately stirred using a magnetic stirring bar.
About 93.9 g of the above described S1 slurry were placed in a 200 mL beaker upon a magnetic stirrer, and was moderately stirred. […] Aliquots of 0.1 mole/L aqueous sodium citrate were added, and pH was recorded after each addition.
About 93.3 g of the above described S1 slurry were placed in a 200 mL beaker and stirred.
Regarding `CC(=O)O` [sodium acetate], the “effect of added buffering salt on slurry pH” value is “increases the slurry pH to a significant extent; also recorded: significantly increases the slurry pH”.

On to `O=C([O-])c1ccccc1O.[Na+]` [sodium salicylate], for which the “effect of added buffering salt on slurry pH” value is reported as “provides some pH control, but that the effect is less than that exhibited comparatively to the earlier examples”.

Assay in another data set: not given
The following applies: Texter, Langmuir, 8, 291 (1992); cited from earlier work.
As for `CC1=NN(c2ccc(C(=O)O)cc2)C(=O)C1=Cc1c(C)nn(-c2ccc(C(=O)O)cc2)c1O` [FD2], the intrinsic electrokinetic charge result is “negative”.

The same data set, now with this note: slurry in the absence of surfactant; Texter, Langmuir, 8, 291 (1992); cited from earlier work.
For the molecule `CC1=NN(c2ccc(C(=O)O)cc2)C(=O)C1=Cc1c(C)nn(-c2ccc(C(=O)O)cc2)c1O` [FD2], the “S-shaped ESA transition over the pH interval” value is reported as 4-6.

Assay in another data set: not given
The following applies: 18° C.; cited from earlier work.
On to `O=S(=O)(O)CCCNCCNCCCS(=O)(=O)O` [N,N'-Bis(3-sulphopropyl) ethylenediamine], for which the pKa was 6.65.

Still in this data set, the particulars now being: 20° C.; cited from earlier work.
As for `O=S(=O)(Nc1ccccc1)c1ccccc1` [C6 H5 --SO2 NH--C6 H5], the pKa is recorded as 8.31.

As to `Cc1ccc(NS(=O)(=O)c2ccccc2)cc1` [p-CH3 --C6 H4 --NHSO2 --C6 H5], the pKa was 8.64.

For `COc1ccc(NS(=O)(=O)c2ccccc2)cc1` [p-CH3 O--C6 H4 --NHSO2 --C6 H5], the pKa is 8.70.

On to `O=C(O)c1ccc(S(=O)(=O)Nc2ccccc2)cc1` [p-CO2 H--C6 H4 --SO2 NH--C6 H5], for which the pKa2 is reported as 7.75.

On to `CC(=O)c1ccc(S(=O)(=O)Nc2ccccc2)cc1` [p-COCH3 --C6 H4 --SO2 NH--C6 H5], for which the pKa is on record as 6.94.

Regarding `NS(=O)(=O)c1ccc(Cl)cc1` [p-Cl--C6 H4 --SO2 NH2], the pKa is reported as 9.77.

In the case of `NS(=O)(=O)c1ccc([N+](=O)[O-])cc1` [p-NO2 --C6 H4 --SO2 NH2], the pKa is 9.14.

Staying with this data set, now noted: 25° C.; cited from earlier work.
For the molecule `O=C1NCCS(=O)(=O)N1`, the pKa is 4.51.

As to `O=S1(=O)CCCN1`, the pKa is reported as 11.39.

Regarding `O=S(=O)(Nc1c(Cl)cc(Cl)cc1Cl)C(F)(F)F` [2,4,6-trichloro-C6 H2 --NHSO2 CF3], the pKa is 2.70.

In the case of `O=S(=O)(Nc1ccc(Cl)cc1Cl)C(F)(F)F` [2,4-dichloro-C6 H3 --NHSO2 CF3], the pKa is given as 2.96.

For the molecule `O=S(=O)(Nc1ccc(F)cc1F)C(F)(F)F` [2,4-difluoro-C6 H3 --NHSO2 CF3], the pKa is 3.44.

`O=S(=O)(Nc1ccc(Cl)cc1C(F)(F)F)C(F)(F)F` [2-CF3-4-Cl--C6 H3 --NHSO2 CF3]: the pKa is given as 2.59.

For the molecule `Cc1cc(Cl)ccc1NS(=O)(=O)C(F)(F)F` [2-CH3-4-Cl--C6 H3 --NHSO2 CF3], the pKa is reported as 3.90.

For `O=S(=O)(Nc1cccc(C(F)(F)F)c1)C(F)(F)F` [3,3-CF3 --C6 H4 --NHSO2 CF3], the pKa is 3.70.

Regarding `OCc1c[nH]cn1` [4-Hydroxylmethylimidazole], the pKa is 6.39.

For the molecule `Cc1c[nH]cn1` [4-Methylimidazole], the pKa is given as 7.67.

For the molecule `O=C1CC(=O)NC(=O)N1` [Barbituric acid], the pKa is 4.04.

On to `O=S(=O)(Nc1ccccc1)C(F)F` [C6 H5 --NHSO2 CF2 H], for which the pKa is reported as 6.19.

Turning to `CC(=O)NS(=O)(=O)c1ccccc1` [C6 H5 --SO2 NHCOCH3], the pKa is listed as 4.72.

With `NNS(=O)(=O)c1ccccc1` [C6 H5 --SO2 NHNH2], the pKa was 10.60.

For `O=S(=O)(NO)c1ccccc1` [C6 H5 --SO2 NHOH], the pKa is 9.34.

With `CCS(=O)(=O)NC` [CH3 CH2 SO2 NHCH3], the pKa is 11.84.

`CNS(C)(=O)=O` [CH3 SO2 NHCH3]: the pKa is on record as 11.79.

As to `CS(=O)(=O)NS(C)(=O)=O` [CH3 SO2 NHSO2 CH3], the pKa is given as 1.36.

As to `CN(C)CCN` [Dimethylaminoethylamine], the pKa2 is 6.50.

As to `O=P(O)(O)OC(CO)CO` [Glycerol-2-phosphoric acid], the pKa2 is 6.65.

For `O=C(O)CNC(=O)c1ccccc1` [Hippuric acid], the pKa is given as 3.64.

In the case of `NS(=O)(=O)C(F)F` [NH2 SO2 CF2 H], the pKa is on record as 8.06.

Take `NS(=O)(=O)CF` [NH2 SO2 CFH2]: the pKa is given as 9.32.

For the molecule `O=C(O)c1ccccc1C(=O)O` [Phthalic acid], the pKa2 is 5.41.

For the molecule `c1ccc2ncccc2c1` [Quinoline], the pKa is recorded as 5.00.

Consider `CCN(CC)CCN(CC)CC` [Tetraethylethylenediamine], for which the pKa2 is recorded as 5.89.

As to `OCCN(CCO)CCN(CCO)CCO` [Tetrakis-(2-hydroxyethyl) ethylenediamine], the pKa2 is 4.5.

Turning to `O=C(O)C(Cl)(Cl)Cl` [Trichloroacetic acid], the pKa is recorded as 0.66.

As to `O=c1[nH]c(=O)c2[nH]c(=O)[nH]c2[nH]1` [Uric acid], the pKa is listed as 5.83.

For the molecule `O=C1CS(=O)(=O)NC(=O)N1` [drawing 3], the pKa is recorded as 2.88.

Turning to `O=C1CS(=O)(=O)NC(=O)N1` [drawing 5], the pKa is reported as 11.00.

Take `O=C(c1ccccc1)c1cccc(NS(=O)(=O)C(F)(F)F)c1` [m-C6 H5 CO--C6 H4 --NHSO2 CF3]: the pKa is given as 3.50.

Consider `O=C(c1ccccc1)c1cccc(NS(=O)(=O)CF)c1` [m-C6 H5 CO--C6 H4 --NHSO2 CFH2], for which the pKa is listed as 6.77.

On to `CS(=O)(=O)Nc1cccc(C(=O)c2ccccc2)c1` [m-C6 H5 CO--C6 H4 --NHSO2 CH3], for which the pKa is listed as 8.19.

With `O=C(NO)c1cccc([N+](=O)[O-])c1` [m-NO2 --C6 H4 --CONHOH], the pKa was 8.20.

Turning to `NNc1cccc([N+](=O)[O-])c1` [m-NO2 --C6 H4 --NHNH2], the pKa was 9.78.

In the case of `CC(=O)NS(=O)(=O)Nc1cccc([N+](=O)[O-])c1` [m-NO2 --C6 H4 --NHSO2 NHCOCH3], the pKa was 3.97.

Turning to `NS(=O)(=O)c1cccc([N+](=O)[O-])c1` [m-NO2 --C6 H4 --SO2 NH2], the pKa is given as 9.40.

In the case of `O=[N+]([O-])c1cccc(S(=O)(=O)NO)c1` [m-NO2 --C6 H4 --SO2 NHOH], the pKa is 8.60.

As for `Nc1ccccc1C(=O)O` [o-Aminobenzoic acid], the pKa was 2.15.

`O=C(NO)c1ccc(Br)cc1` [p-Br--C6 H4 --CONHOH]: the pKa is recorded as 8.61.

Regarding `NS(=O)(=O)c1ccc(Br)cc1` [p-Br--C6 H4 --SO2 NH2], the pKa is 9.87.

Take `CC(=O)NS(=O)(=O)c1ccc(Br)cc1` [p-Br--C6 H4 --SO2 NHCOCH3]: the pKa is given as 4.52.

For `NNS(=O)(=O)c1ccc(Br)cc1` [p-Br--C6 H4 --SO2 NHNH2], the pKa was 10.36.

Regarding `O=S(=O)(NO)c1ccc(Br)cc1` [p-Br--C6 H4 --SO2 NHOH], the pKa is reported as 9.08.

`O=C(c1ccccc1)c1ccc(NS(=O)(=O)C(F)(F)F)cc1` [p-C6 H5 CO--C6 H4 --NHSO2 CF3]: the pKa is recorded as 3.22.

Turning to `Cc1ccc(C(=O)NO)cc1` [p-CH3 --C6 H4 --CONHOH], the pKa is recorded as 8.99.

Consider `CC(=O)NS(=O)(=O)c1ccc(C)cc1` [p-CH3 --C6 H4 --SO2 NHCOCH3], for which the pKa was 4.92.

On to `Cc1ccc(S(=O)(=O)NN)cc1` [p-CH3 --C6 H4 --SO2 NHNH2], for which the pKa is 10.71.

In the case of `Cc1ccc(S(=O)(=O)NO)cc1` [p-CH3 --C6 H4 --SO2 NHOH], the pKa was 9.40.

On to `CCc1ccc(NS(=O)(=O)C(F)(F)F)cc1` [p-CH3 CH2 --C6 H4 --NHSO2 CF3], for which the pKa is 4.82.

As for `CC(=O)c1ccc(NS(=O)(=O)C(F)(F)F)cc1` [p-CH3 CO--C6 H4 --NHSO2 CF3], the pKa was 3.29.

As for `COc1ccc(NS(=O)(=O)C(F)(F)F)cc1` [p-CH3 O--C6 H4 --NHSO2 CF3], the pKa was 4.90.

Turning to `Cc1ccc(N)cc1` [p-Toluidine], the pKa is reported as 5.30.

For the molecule `O=C(O)/C=C(\CC(=O)O)C(=O)O` [trans-Aconitic acid], the pKa1 is listed as 2.80 and the pKa2 was 4.46.

Values taken from patent publication US5994041A, “Process for buffering concentrated aqueous slurries” (priority 1998, dated 1999).
